Columns and labels:
Format in all cases: physicochemical, human
[1] = LC/MS of blood plasma sample: time from blood collection to centrifugation (Table D); settings: blood collection to centrifugation; for Rate of increase or decrease: detection intensity relative to 1 at 15 minutes, after 4 hours; for Increase or decrease: detection intensity, after 4 hours vs 15 minutes
How it was run: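 Healthy-subject blood (5 mL, EDTA) cooled and held at 4 °C before centrifugation (4 °C, 3000 rpm, 15 min), with plasma then frozen. LC/MS on Discovery HS F5-3 column at 40 °C, 0.1% formic acid water/acetonitrile, 0.25 mL/min, electrospray, MRM; intensities relative to 15 min collection-to-centrifugation set as 1.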

[2] = LC/MS of blood plasma sample: time from blood collection to cooling of blood (Table E); parameters: key to Rate of increase or decrease / Rate of increase or decrease (first value, increase): detection intensity relative to ≤1 min to cooling = 1; settings: for Increase or decrease: detection intensity, blood collection to cooling 5 minutes or more vs 1 minute or less; for Rate of increase or decrease (second value, decrease) / Rate of increase or decrease (first value, increase): different from individual to individual, relative to 1 at 1 minute or less, collection to cooling 5 minutes; for Rate of increase or decrease (second value, decrease): individuals with decrease; for Rate of increase or decrease (first value, increase): individuals with increase
[3] = LC/MS of blood plasma sample: number of times of freezing and thawing (Table F); settings: for Rate of increase or decrease: detection intensity relative to 1 at 2 times, freezing and thawing 4 times; for Increase or decrease: detection intensity
How it was run: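 Human blood from a healthy subject drawn into EDTA tubes, cooled to 4° C within 1 min or after ≥5 min, centrifuged at 4° C, 3000 rpm, 15 min. Plasma frozen, then freeze-thawed 2, 4, 6 or 10 times and analysed by LC/MS (ESI, MRM). Intensities expressed relative to 2 freeze-thaw cycles set as 1.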

[4] = LC/MS of serum sample: time from blood collection to centrifugation (Table J); settings: for Rate of increase or decrease: after 4 hours from blood collection to centrifugation, detection intensity relative to 1 at 15 minutes; for Increase or decrease / Time when compound is affected: serum sample, LC/MS; for Increase or decrease: detection intensity vs 15 minutes from blood collection to centrifugation; for Time when compound is affected: time from blood collection to centrifugation, detection intensity changed by 30% or more vs 15 minutes
How it was run: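 Serum from blood centrifuged at room temperature, 3500 rpm, 5 min, then frozen; analysed by LC/MS on a Discovery HS F5-3 column at 40 °C. Mobile phase: 0.1% formic acid in water/acetonitrile, 0.25 mL/min, electrospray MRM. Values are intensity relative to a 15 min collection-to-centrifugation time.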

[5] = LC/MS of serum sample: time from centrifugation to isolation (Table K); parameters: key to Rate of increase or decrease: detection intensity relative to the 30-minute value set as 1; settings: for Rate of increase or decrease: after 1 hour from centrifugation to isolation, detection intensity relative to 1 at 30 minutes; for Increase or decrease / Time when compound is affected: serum sample, LC/MS; for Increase or decrease: detection intensity vs 30 minutes from centrifugation to isolation; for Time when compound is affected: time from centrifugation to isolation, detection intensity changed by 30% or more vs 30 minutes
How it was run: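 Serum left at room temperature 30 min, 1 h or 6 h between centrifugation (3500 rpm, 5 min, room temperature) and isolation, then frozen and analysed by LC/MS (Discovery HS F5-3 column, 40° C., 0.1% formic acid water/acetonitrile, electrospray, MRM). Values are detection intensity relative to the 30-min condition set to 1.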

[6] = LC/MS of serum sample: number of times of freezing and thawing (Table M); parameters: key to Rate of increase or decrease: detection intensity relative to 1 at 2 freeze-thaw cycles; settings: for Number of times when compound is affected / Increase or decrease: serum sample, LC/MS; for Number of times when compound is affected: detection intensity changed by 30% or more vs 2 times of freezing and thawing; for Increase or decrease: detection intensity vs 2 times of freezing and thawing
How it was run: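 Serum was isolated at room temperature after centrifugation at room temperature, 3500 rpm, 5 minutes, then frozen and freeze-thawed 2, 4, 6 or 10 times. LC/MS used a Discovery HS F5-3 column at 40° C with formic acid water/acetonitrile, electrospray MRM. Intensity is relative to 2 freeze-thaw cycles.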

[7] = GC/MS of serum sample: time from blood collection to centrifugation (Table G); settings: blood collection to centrifugation
How it was run: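 Blood was held for varying times before centrifugation (room temperature, 3500 rpm, 5 min); serum was frozen, then methoxymated and trimethylsilylated for GC/MS with electron ionization in MRM mode. Values are detection intensities relative to the 15-minute collection-to-centrifugation condition, set as 1.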

[8] = GC/MS of serum sample: time from centrifugation to isolation (Table H); parameters: key to Rate of increase or decrease / Rate of increase or decrease (first value, increase): detection intensity relative to 1 at 30 min centrifugation-to-isolation
How it was run: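 Blood was centrifuged at room temperature, 3500 rpm, 5 min, and the vessel left at room temperature for 30 min, 1 h or 6 h before serum isolation. Serum was methoxymated, trimethylsilylated and analysed by GC/MS with electron ionization in MRM mode; intensities expressed relative to the 30-min condition (=1).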

[9] = GC/MS of serum sample: number of times of freezing and thawing (Table I); parameters: key to Rate of increase or decrease / Rate of increase or decrease (first value, increase): detection intensity relative to 2 freeze-thaw cycles = 1; settings: serum, GC/MS
How it was run: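 Serum was isolated after centrifugation at room temperature (3500 rpm, 5 min), frozen, and put through 2, 4, 6 or 10 freeze–thaw cycles. Samples were methoxymated and trimethylsilylated, then run by electron-ionization GC/MS in MRM mode on a BPX5 column (60 to 330 °C). Detection intensity is given relative to the 2-cycle sample, set as 1.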

[10] = freezing and thawing 4 times vs 2 times
[11] = 4 times of freezing and thawing, detection intensity relative to 1 at 2 times

SMILES | Rate of increase or decrease [1] | Increase or decrease [1] | Increase or decrease [2] | Rate of increase or decrease (second value, decrease) [2] | Rate of increase or decrease (first value, increase) [2] | Rate of increase or decrease [3] | Increase or decrease [3, 10] | Rate of increase or decrease [4] | Increase or decrease [4] | Time when compound is affected [4] | Rate of increase or decrease [5] | Increase or decrease [5] | Time when compound is affected [5] | Number of times when compound is affected [6] | Increase or decrease [6] | Rate of increase or decrease [6, 11] | other results
Nc1ncnc2c1ncn2[C@@H]1O[C@H](CSCC[C@H](N)C(=O)O)[C@@H](O)[C@H]1O [S-adenosylhomocysteine] | 0.66 | Decrease | Different from individual | 0.49 | 1.40 | 2.09 | Increase | 2.82 | Increase | After 4 hours | 1.51 | Increase | After 1 hour hours | 6 times | Different from individual |  | Rate of increase or decrease ([6]; 6 times of freezing and thawing, relative to 1 at 2 times, different from individual to individual, first value (increase)): 1.62; Rate of increase or decrease ([6]; 6 times of freezing and thawing, relative to 1 at 2 times, different from individual to individual, second value (decrease)): 0.49
OC[C@H]1O[C@@H](n2cnc3c(O)ncnc32)[C@H](O)[C@@H]1O [Inosine] | 2.26 | Increase | Different from individual | 0.64 | 18.25 |  |  | 0.17 | Decrease | After 4 hours | 0.61 | Decrease | After 1 hour hours | 4 times | Increase | 1.44 | Increase or decrease ([3]; freezing and thawing 6 times vs 2 times): Different from individual; Rate of increase or decrease (second value, decrease) ([3]; different from individual to individual, individuals with decrease, relative to 1 at 2 times, freezing and thawing 6 times): 0.53; Rate of increase or decrease (first value, increase) ([3]; different from individual to individual, individuals with increase, relative to 1 at 2 times, freezing and thawing 6 times): 1.67
Nc1ncnc2c1ncn2[C@@H]1O[C@H](CO)[C@@H](O)[C@H]1O [Adenosine] | 1.39 | Increase | Increase |  |  | 0.58 | Decrease | 0.29 | Decrease | After 4 hours | 0.07 | Decrease | After 1 hour hours | 4 times | Decrease | 0.54 | Rate of increase or decrease ([2]; detection intensity relative to 1 at 1 minute or less, blood collection to cooling 5 minutes): 1.52; Rate of increase or decrease ([7]; detection intensity relative to 1 at 15 minutes, after 4 hours): 0.17; Increase or decrease ([7]; detection intensity, after 4 hours vs 15 minutes): Decrease; Rate of increase or decrease ([8]; detection intensity relative to 1 at 30 minutes, after 1 hour): 3.11; Increase or decrease ([8]; detection intensity, after 1 hour vs 30 minutes): Increase; Rate of increase or decrease ([9]; detection intensity relative to 1 at 2 times, freezing and thawing 4 times): 0.36; Increase or decrease ([9]; detection intensity, freezing and thawing 4 times vs 2 times): Decrease

Source: US20220146526A1, “METHOD FOR EVALUATING SAMPLE, ANALYSIS METHOD, METHOD FOR DETECTING DEGRADED SAMPLE, MARKER FOR DETECTING DEGRADED BLOOD PLASMA SAMPLE, AND MARKER FOR DETECTING DEGRADED SERUM SAMPLE” (SHIMADZU CORPORATION, priority 2019, published 2022)
